# Measured values from article PMC12458024, “Stabilizing a Native Fold of Alpha-Synuclein with Short Helix-Constrained Peptides” (JACS Au, 2025).
# “Also recorded” adds a separate entry of the source. Positions of bridges follow the written chain, without caps; N, C: chain ends. Residues, ends and D or L forms follow the SMILES beside them.
# Legend:
# [1] = Circular dichroism: fractional helicity with and without DMPS SUVs (lipid binding); format: physicochemical; conditions: CD, 20 μM peptide, 20 mM phosphate buffer pH 6.5, 30 °C, mean of three independent measurements; for Fractional helicity (fH) with DMPS: 1000 μM DMPS vesicles; for Fractional helicity (fH) no DMPS: no lipid
# Description: Far UV CD spectra scans were then recorded of the solutions on a Chirascan V100 (Applied Photophysics), at 30 °C, in a 1 mm path length quarts cuvette, scanning from 280–190 nm with a 1 nm bandwidth, averaged over 3 scans and blanked against the solutions containing the relevant DMPS vesicles in 20 mM phosphate buffer (pH 6.5).
# Fractional helicity (fH) was calculated according to the equation fH=(θ222−θc)/(θ222∞−θc) where θ222∞ = (−44,000 + 250T)*(1 – k/Nr) and θc = 2220 – 53T. In these equations, the wavelength-dependent constant k = 2.4, Nr = the number of residues, and T is the temperature, 30 °C. ,
# αS1–140 = biological target: T1, αS1–140 (Homo sapiens, UniProt P37840); assay: Lipid-induced αS aggregation assay (ThT kinetics); format: biochemical; conditions: 100 μM αS1–140, 50 μM ThT, 50 μM DMPS SUVs, 20 mM phosphate pH 6.5, 30 °C; peptide 100 and 500 μM; n = 3
# T1 construct: pET21a plasmid encoding human wild-type αS1–140; made in house; host or cells: E. coli BL21 (DE3)
# Description: Dry DMPS lipid powder was accurately weighed using a Sartorius ultramicro balance and dissolved in 20 mM sodium phosphate buffer (pH 6.5) to a final concentration of 2 mM. The lipid was solubilized by shaking in a 2 mL Eppendorf tube on a Thermomixer compact (Eppendorf) at 45 °C, 1400 rpm for 3 h. The solution was then freeze–thawed five times using dry ice and a thermomixer (45 °C, 500 rpm). Vesicle formation was completed by sonication, using a Bandelin Sonopuls sonicator equipped with a TS102 probe, set to 20% amplitude, for 15 cycles (30 s on/30 s off). Vesicles were freshly prepared on the day of use. The SUVs prepared have an average diameter of approximately 30–40 nm, as characterized by dynamic light scattering (DLS) as previously described. This corresponds to vesicle concentrations in the low micromolar range.
# Lipid-induced aggregation experiments were monitored using a CLARIOstar fluorescence microplate reader (BMG Labtech) under quiescent conditions (no shaking) at 30 °C. Experiments were conducted in black, clear-bottom 96-well half-area polystyrene plates with a nonbinding surface (Corning #3881), sealed with aluminum Thermowell sealing tape (Corning #6570). Each well contained 100 μL of reaction volume, run in triplicate, comprising 100 μM αS, 50 μM ThT, 50 μM DMPS (monomeric equivalent), 0.01% sodium azide, and varying concentrations of peptide (0 μM to 1 mM), all in 20 mM phosphate buffer (pH 6.5).
# Instrument settings included a focal height of 4.9 mm and a gain of 800, with an excitation filter of 440 ± 15 nm, an emission filter of 480 ± 15 nm, and a 460 nm dichroic cutoff. Readings were collected from the bottom optic using a spiral averaging (4 mm diameter) with 50 flashes per well, and measurements were taken every 1200 s. The outer wells of the plate were not used to avoid evaporation
# circular dichroism = conditions: 20 mM phosphate; pH 6.5; 30 °C; 20 uM
# [2] = Peptide stability in human serum; format: in vitro ADME; conditions: normal human serum, 30 μM peptide, 37 °C, analytical HPLC peak area normalized to t = 0, triplicate; read-out: Peptide remaining intact in human serum at 48 h
# Description: Serum stability assays were performed in normal human serum. Peptide stocks were initially prepared at 600 μM in H2O, and 75 μL of this stock was added to 1425 μL of normal human serum (Merck), yielding a final concentration of 30 μM. Samples were incubated at 37 °C, and 100 μL aliquots were collected at designated time points (0, 1, 2, 3, 4, 6, 22, 24, and 48 h) and then immediately stored at −80 °C. After all time points, the samples were thawed and mixed with 300 μL of acetonitrile:water (3:1, v/v) by vortexing to ensure complete mixing. Following centrifugation at 14500 rpm for 20 min, 200 μL of the supernatant was analyzed by HPLC using a Phenominex Luna 5 μm C18 100 Å analytical column, eluted with a 0–50% acetonitrile gradient containing 0.1% TFA. Peak areas were integrated and normalized to the 0-h sample. Each peptide was tested in triplicate.
# SH-SY5Y cells [3] = assay: Alamar Blue toxicity assay; format: cell-based, human; conditions: 0–20 μM RhoB-labeled peptide, 30–36 h, relative to untreated controls
# Description: (§1) SH-SY5Y cells were plated at a density of 5,000 cells well^–1 in a half-area 96-well plate. Twenty-four hours after plating, the media was removed and replaced with media containing 10 or 20 μM of rhodamine-B labeled peptide or the equivalent volume of PBS. Cells were incubated with peptides for a further 30–36 h. As a positive control for cell lysis, 3 wells of cells were treated with 5% Triton-X 100 for 20 min, and then 20 μL of media was harvested from all wells for ToxiLight analysis according to the manufacturer’s instructions (Lonza Biologics PLC, LT07–217). Cells were then washed once with PBS and incubated for 90 min with a 1:10 dilution of AlamarBlue reagent (Invitrogen, DAL1025). Media was harvested and the fluorescence measured according to the manufacturer’s instructions. Cells were then washed twice with PBS and incubated with a 1:12.5 dilution of NucBlue (ThermoFisher Scientific, R37605) and a 1:500 dilution of CellTracker Deep Red (Invitrogen, C34565) in media for a further 30 min. Cells were then washed 2 more times in PBS and imaged.
# SH-SY5Y cells [4] = assay: ToxiLight toxicity assay; format: cell-based, human; conditions: 0–20 μM RhoB-labeled peptide, 30–36 h, Triton X-100 positive control
# Description: as §1
# N2 C. elegans = conditions: dosed at L4, 0–100 μM, day 5 of adulthood
# Description: The C. elegans strain N2 was used as the control, while the transgenic strain NL5901 (unc-54p::αS::YFP), which expresses αS fused to YFP in the body wall muscle cells, was used to model the PD motility phenotype. Worms were synchronized by bleaching with sodium hypochlorite, and the eggs were resuspended in M9 buffer and incubated overnight at 20 °C with shaking (50 rpm) to hatch. Larvae were then transferred to nematode growth medium (NGM) agar plates seeded with E. coli OP50 as a food source and incubated in the dark at 20 °C until they reached the L4 stage.
# L4-stage worms were transferred to fresh NGM agar plates containing 75 μM 5-fluoro-2’deoxyuridine (FUdR), to prevent reproduction, and seeded with E. coli OP50 as a food source. […] Nematodes were incubated in the dark at 20 °C for 5 days. Following incubation, 15 worms per condition were picked using a worm pick and placed in a drop of M9 media on a microscope slide. Movements were recorded immediately for a period of 30 s. For each condition, 5 worms per video were manually scored for the number of body bends per minute. […] A body bend was defined as a full oscillation, where the head returned to a point on the same side.
Structure (SMILES),Fractional helicity (fH) with DMPS [1] [%],Fractional helicity (fH) no DMPS [1] [%],Effect on lipid-induced αS1–140 aggregation (ThT) (αS1–140),helicity (circular dichroism) [%],"remaining at 48 h, 30 μM [2] [%]","Cytotoxicity, Alamar Blue (SH-SY5Y cells [3])","Cytotoxicity, ToxiLight (SH-SY5Y cells [4])",Thrashing rate of wild-type N2 worms (N2 C. elegans)
CSCC[C@H](NC(=O)[C@H](Cc1ccccc1)NC(=O)[C@@H](NC(=O)[C@H](CC(=O)O)NC(C)=O)C(C)C)C(=O)N[C@@H](CCCCN)C(=O)NCC(=O)N[C@@H](CC(C)C)C(=O)N[C@@H](CO)C(=O)N[C@@H](CCCCN)C(=O)N[C@@H](C)C(=O)N[C@@H](CCCCN)C(N)=O (Ac-DVFMKGLSKAK-NH2),–,–,–,8.1,–,–,–,–
CSCC[C@@H]1NC(=O)[C@H](Cc2ccccc2)NC(=O)[C@H](C(C)C)NC(=O)[C@@H](NC(C)=O)CCCCNC(=O)C[C@@H](C(=O)NCC(=O)N[C@@H](CC(C)C)C(=O)N[C@@H](CO)C(=O)N[C@@H](CCCCN)C(=O)N[C@@H](C)C(=O)N[C@@H](CCCCN)C(N)=O)NC1=O [αS2–12(L1)] (Ac-KVFMDGLSKAK-NH2; lactam 1-5),0.0,0.0,enhanced αS aggregation,–,–,–,–,–
CSCC[C@H](NC(=O)[C@H](Cc1ccccc1)NC(=O)[C@@H](NC(=O)[C@H](CC(=O)O)NC(C)=O)C(C)C)C(=O)N[C@@H](CCCCN)C(=O)N[C@H]1CCCCNC(=O)C[C@@H](C(=O)N[C@@H](CCCCN)C(N)=O)NC(=O)[C@H](CCCCN)NC(=O)[C@H](CO)NC(=O)[C@H](CC(C)C)NC1=O [αS2–12(L6)] (Ac-DVFMKKLSKDK-NH2; lactam 6-10),–,–,–,31.4,16,No significant toxicity,No significant toxicity,no change in thrashing rate
CSCC[C@@H]1NC(=O)[C@@H](NC(=O)[C@@H](NC(=O)[C@H](CC(=O)O)NC(C)=O)C(C)C)CCCCNC(=O)C[C@@H](C(=O)N[C@@H](CO)C(=O)N[C@@H](CCCCN)C(=O)N[C@@H](C)C(=O)N[C@@H](CCCCN)C(N)=O)NC(=O)CNC(=O)[C@H](CCCCN)NC1=O [αS2–12(L3)] (Ac-DVKMKGDSKAK-NH2; lactam 3-7),2.9,14.6,most effective inhibition; also recorded: greatest inhibition of αS1–140 aggregation,–,–,–,–,–
CSCC[C@H](NC(=O)[C@H](Cc1ccccc1)NC(=O)[C@@H](NC(=O)[C@H](CC(=O)O)NC(C)=O)C(C)C)C(=O)N[C@H]1CCCCNC(=O)C[C@@H](C(=O)N[C@@H](C)C(=O)N[C@@H](CCCCN)C(N)=O)NC(=O)[C@H](CO)NC(=O)[C@H](CC(C)C)NC(=O)CNC1=O [αS2–12(L5)] (Ac-DVFMKGLSDAK-NH2; lactam 5-9),3.3,28.9,–,–,–,–,–,–

# More lines, main results first:
Fractional helicity (fH) with DMPS [1] [%],Fractional helicity (fH) no DMPS [1] [%],Effect on lipid-induced αS1–140 aggregation (ThT) (αS1–140),Structure (SMILES),helicity (circular dichroism) [%],"remaining at 48 h, 30 μM [2] [%]","Cytotoxicity, Alamar Blue (SH-SY5Y cells [3])","Cytotoxicity, ToxiLight (SH-SY5Y cells [4])",Thrashing rate of wild-type N2 worms (N2 C. elegans)
27.7,12.4,enhanced αS aggregation,CC(=O)N[C@@H](CC(=O)O)C(=O)N[C@H](C(=O)N[C@@H](Cc1ccccc1)C(=O)N[C@H]1CCCCNC(=O)C[C@@H](C(=O)N[C@@H](CCCCN)C(=O)N[C@@H](C)C(=O)N[C@@H](CCCCN)C(N)=O)NC(=O)[C@H](CC(C)C)NC(=O)CNC(=O)[C@H](CCCCN)NC1=O)C(C)C [αS2–12(L4)] (Ac-DVFKKGLDKAK-NH2; lactam 4-8),–,–,–,–,–
16.8,15.8,enhanced αS aggregation,CSCC[C@H](NC(=O)[C@H](Cc1ccccc1)NC(=O)[C@@H](NC(=O)[C@H](CC(=O)O)NC(C)=O)C(C)C)C(=O)N[C@@H](CCCCN)C(=O)NCC(=O)N[C@H]1CCCCNC(=O)C[C@@H](C(N)=O)NC(=O)[C@H](C)NC(=O)[C@H](CCCCN)NC(=O)[C@H](CO)NC1=O [αS2–12(L7)] (Ac-DVFMKGKSKAD-NH2; lactam 7-11),–,–,–,–,–
14.5,30.9,most effective inhibition,CSCC[C@@H]1NC(=O)[C@H](Cc2ccccc2)NC(=O)[C@@H](NC(=O)[C@H](CC(=O)O)NC(C)=O)CCCCNC(=O)C[C@@H](C(=O)N[C@@H](CC(C)C)C(=O)N[C@@H](CO)C(=O)N[C@@H](CCCCN)C(=O)N[C@@H](C)C(=O)N[C@@H](CCCCN)C(N)=O)NC(=O)[C@H](CCCCN)NC1=O [αS2–12(L2)] (Ac-DKFMKDLSKAK-NH2; lactam 2-6),–,–,–,–,–
